{
  "source": "patent US20100093532A1",
  "about": "“Pesticidal Mixtures Comprising Phenylsemicarbazone and Clothianidin” (BASF SE, priority 2007, published 2010)",
  "system": "Mediterranean fruitfly (Ceratitis capitata)",
  "experiment": "Control of Mediterranean fruitfly, egg and larval mortality in 96-well microtiter plates with insect diet",
  "type": "in vivo",
  "conditions": "sprayed onto insect diet with C. capitata eggs, 5 days at 28±1° C., 80±5% RH, egg and larval mortality visually assessed",
  "method": "For evaluating control of Mediterranean fruitfly (Ceratitis capitata) the test unit consisted of 96-well-microtiter plates containing an insect diet and 50-80 C. capitata eggs. The compounds or mixtures were formulated using a solution containing 75% water and 25% DMSO. Different concentrations of formulated compounds or mixtures were sprayed onto the insect diet at 5 μl, using a custom built micro atomizer, at two replications.\nFor experimental mixtures in these tests identical volumes of both mixing partners at the desired concentrations respectively, were mixed together.\nAfter application, microtiter plates were incubated at 28±1° C., 80±5% RH (relative humidity) for 5 days. Egg and larval mortality was then visually assessed.",
  "data": [
    {"smiles": "CN/C(=N\\[N+](=O)[O-])NCc1cnc(Cl)s1", "note": "[Clothianidin, (E)-1-(2-chloro-1,3-thiazol-5-ylmethyl)-3-methyl-2-nitroguanidine]", "values": [
      {"measurement": "Average Control (%)", "setting": "Clothianidin 2 ppm", "result": 0, "unit": "%"}
    ]},
    {"smiles": "N#Cc1ccc(CC(=NNC(=O)Nc2ccc(OC(F)(F)F)cc2)c2cccc(C(F)(F)F)c2)cc1", "note": "(racemic) [Metaflumizone, 2-[2-(4-cyanophenyl)-1-[3-(trifluoromethyl)phenyl]ethylidene]-N-[4-(trifluoromethoxy)phenyl]hydrazinecarboxamide]", "values": [
      {"measurement": "Average Control (%)", "setting": "Metaflumizone 20 ppm", "result": 0, "unit": "%"}
    ]}
  ]
}
